Assay results from patent US5935983A, “Use of phenylcyclohexylcarboxamides” (Bayer Aktiengesellschaft, priority 1995, dated 1999).

Test system: smooth muscle cells obtained from the aortas of pigs
Experiment: inhibition of the proliferation of smooth muscle cells (3H-thymidine incorporation)
Type: cell-based, pig
Conditions: Sus scrofa; porcine aortic smooth muscle cells; half-maximal inhibition of the thymidine incorporation produced by 10% FCS; 3H-thymidine added after 16-20 h, further 4 h
Experimental: Investigation of the inhibition of the proliferation of smooth muscle cells by the compounds according to the invention
To determine the antiproliferative action of the compounds, smooth muscle cells are used which are obtained from the aortas of pigs by the media explant technique [R. Ross, J. Cell. Biol. 50, 172, 1971]. The cells are inoculated into suitable culture dishes, as a rule 96-hole plates, and cultured at 37° C. in 5% CO2 for 2-3 days in medium 199 containing 7.5% FCS and 7.5% NCS, 2 mM L-glutamine and 15 mM HEPES, pH 7.4. The cells are then synchronized by serum withdrawal for 2-3 days and then stimulated to growth using serum or other factors. Test compounds are added simultaneously. After 16-20 hours, ^3 H-thymidine is added and after a further 4 hours the incorporation of this substance into the TCA-precipitable DNA of the cells is determined. To determine the IC50 values, the active compound concentration is calculated which, on sequential dilution of the active compound, causes half-maximal inhibition of the thymidine incorporation produced by 10% FCS.

## NC(=O)C(NC(=O)C1CCCCC1c1ccc(Cn2c(C3CC3)nc3ccccc32)cc1)c1ccccc1 (stereo not shown) [Example 16]
  IC50: 0.28 nM
